Measurements reported in patent US5036098A, “Butynylamine derivatives and their production” (Nippon Shinyaku Co., Ltd., priority 1988, dated 1991).
Structures can show the parent of a compound that is named as a salt.

Columns and labels:
Acute toxicity = experiment: Acute toxicity; design: species or system mice; conditions: mouse, in vivo, po; mortality one week later, method of Weil
Description: ddY-Mice (male; 6 to 7 week age) were used as test animals (each group consisting of four mice). Each of the mice was fasted from the previous day (16 to 18 hours before), a drug being tested was orally administered by using a gastric tube, and LD50 value was calculated from the mortality one week later according to the method of Weil.

in vivo = conditions: rat, iv, 3 mg/kg
Description: 4. Concentration of unchanged drug in the serum
A drug being tested was administered to an SD rat (male; 280 to 360 g) in a dose of 3 mg/kg (i.v.), blood samples were taken out at predetermined intervals, and the change in the concentration of said drug left unchanged in the serum was measured.

[1] = system: detrusor muscles of excised rabbit bladder; experiment: Ca++ antagonism upon detrusor muscles of excised rabbit bladder (calcium chloride contraction); conditions: for pA2 value, Ca++ Antagonism: calcium chloride cumulation, Ca++-free, high KCl-modified Krebs' solution, excised rabbit detrusor
[2] = biological target: detrusor muscles of excised rabbit bladder (Oryctolagus cuniculus, UniProt G1U308)
Sequence of detrusor muscles of excised rabbit bladder (Oryctolagus cuniculus, UniProt G1U308) (G1U308 entry or part of it): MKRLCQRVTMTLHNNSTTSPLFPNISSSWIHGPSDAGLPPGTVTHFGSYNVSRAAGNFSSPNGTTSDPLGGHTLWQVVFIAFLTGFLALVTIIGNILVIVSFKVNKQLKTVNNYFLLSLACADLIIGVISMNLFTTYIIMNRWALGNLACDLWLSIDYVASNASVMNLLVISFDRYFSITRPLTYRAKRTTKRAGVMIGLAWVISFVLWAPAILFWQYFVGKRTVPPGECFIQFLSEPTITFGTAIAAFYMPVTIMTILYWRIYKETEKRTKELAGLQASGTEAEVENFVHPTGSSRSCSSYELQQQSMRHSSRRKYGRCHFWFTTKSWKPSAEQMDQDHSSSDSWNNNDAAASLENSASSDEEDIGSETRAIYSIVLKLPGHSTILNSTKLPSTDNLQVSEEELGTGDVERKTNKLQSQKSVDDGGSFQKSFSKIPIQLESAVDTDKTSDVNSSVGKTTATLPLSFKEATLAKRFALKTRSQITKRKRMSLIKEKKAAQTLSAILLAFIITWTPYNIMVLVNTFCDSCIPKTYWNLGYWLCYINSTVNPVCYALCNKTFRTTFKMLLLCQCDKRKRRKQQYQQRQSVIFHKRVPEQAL
Text: 1. Action upon detrusor muscles of excised rabbit bladder
(1) Anticholinergic action
The specimens were contracted by carbachol cumulation, and a reaction curve with respect to carbachol concentration was obtained.

rat bladder = conditions: for Frequency (cycles of contraction per minute), 0.1 mg/kg (i.v.) / Frequency (cycles of contraction per minute), 0.3 mg/kg (i.v.) / Frequency (cycles of contraction per minute), 1.0 mg/kg (i.v.) / Frequency (cycles of contraction per minute), 3.0 mg/kg (i.v.): 0 to 15 minutes, cumulative administration; for Frequency (cycles of contraction per minute), 1.0 mg/kg (i.v.): *p < 0.05; for Frequency (cycles of contraction per minute), 3.0 mg/kg (i.v.): **p < 0.01; for Frequency (cycles of contraction per minute), before administration: before administration (baseline); for action to suppress the frequency of contraction: i.v., cumulative, result in words
[3] = prior art statement; cited from earlier work

Compound	LD50 at 168 h (Acute toxicity)	half-life (in vivo)	pA2 value, Ca++ Antagonism [1]	Ca++ antagonism compared with oxybutynin ([1]; ratio to oxybutynin)	Kb [2]	anticholinergic action compared with oxybutynin ([2]; ratio to oxybutynin)	Frequency (cycles of contraction per minute), 0.1 mg/kg (i.v.) (rat bladder)	Frequency (cycles of contraction per minute), 0.3 mg/kg (i.v.) (rat bladder)	Frequency (cycles of contraction per minute), 1.0 mg/kg (i.v.) (rat bladder)	Frequency (cycles of contraction per minute), 3.0 mg/kg (i.v.) (rat bladder)	minimal effective dose (rat bladder; Rattus norvegicus, iv, read-out: doses showing action to suppress the frequency of contraction)	Frequency (cycles of contraction per minute), before administration (rat bladder)	action to suppress the frequency of contraction (rat bladder)	side effects [3]
CCN(CC)CC#CC(C)(C)OC(=O)C(O)(c1ccccc1)C1CCCCC1 (stereo not drawn) [Example 4, 4-diethylamino-1.1-dimethyl-2-butynyl α-cyclohexylα-phenylglycolate hydrochloride]	841 mg/kg	51 min	6.72	8.3 times	46.8 nM	1/17	1.1 ± 0.3 cycles of contraction per minute	0.8 ± 0.2 cycles of contraction per minute	0.3 ± 0.1 cycles of contraction per minute	0.0 ± 0.0 cycles of contraction per minute	≥ 0.1 mg/kg	1.3 ± 0.3 cycles of contraction per minute	dose-dependent action to suppress the frequency of contraction	–
CCN(CC)CC#CCOC(=O)C(O)(c1ccccc1)C1CCCCC1 (centres unmarked) [Oxybutynin, oxybutynin, reference compound]	–	16.8 min	5.80	–	2.75 nM	–	1.1 ± 0.2 cycles of contraction per minute	1.0 ± 0.2 cycles of contraction per minute	1.2 ± 0.1 cycles of contraction per minute	1.2 ± 0.2 cycles of contraction per minute	–	1.0 ± 0.1 cycles of contraction per minute	no such action was observed	exhibits side effects such as thirst
